In patent publication US9221766B2, “Compounds as diacylglycerol acyltransferase inhibitors” (GlaxoSmithKline LLC, priority 2012, dated 2015):

Target: T1, Human DGAT1 (Homo sapiens, UniProt O75907)
T1 construct: made in house; host or cells: Sf9 insect cells (baculovirus); microsomes used as enzyme
T1 sequence (O75907 1-488): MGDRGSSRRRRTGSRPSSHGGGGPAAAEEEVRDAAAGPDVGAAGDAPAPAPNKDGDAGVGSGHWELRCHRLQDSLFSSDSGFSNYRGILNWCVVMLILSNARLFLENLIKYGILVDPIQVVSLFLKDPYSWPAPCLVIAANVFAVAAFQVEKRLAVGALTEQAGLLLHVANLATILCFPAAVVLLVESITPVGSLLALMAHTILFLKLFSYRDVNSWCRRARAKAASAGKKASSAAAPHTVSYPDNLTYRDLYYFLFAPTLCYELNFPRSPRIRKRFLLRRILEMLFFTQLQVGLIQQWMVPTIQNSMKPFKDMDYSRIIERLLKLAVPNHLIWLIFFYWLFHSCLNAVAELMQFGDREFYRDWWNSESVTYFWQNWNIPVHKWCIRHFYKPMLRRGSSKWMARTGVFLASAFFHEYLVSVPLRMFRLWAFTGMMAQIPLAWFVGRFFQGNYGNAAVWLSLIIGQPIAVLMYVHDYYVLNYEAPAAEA
Test: human DGAT1 lipid extraction (LE) assay, inhibition of triacylglycerol product formation
Type: biochemical
Details: human DGAT1 microsomes from Sf9 cells, read-out: hDGAT LE IC50
Procedure: Human DGAT1 was expressed in Sf9 insect cells using a baculovirus expression system. Microsomes were prepared and used as enzyme for in vitro inhibition testing in either of two formats measuring production of coenzyme A or tridecanoylglycerol product, respectively. All steps were performed at 21-23° C. All data for DGAT1 inhibition by test compounds were collected under conditions where product formation was linear with reaction time.
For inhibition of triacylglycerol product formation, 11 uL reactions were run in white Polyplate-384 (PerkinElmer6007300) starting with a 30 minute pre-reaction incubation of 5 uL of 2.2× enzyme and 1 uL of 100% DMSO containing test compound or control compound, {4-[4-(4-amino-7,7-dimethyl-7H-pyrimido[4,5-b][1,4]oxazin-6-yl)phenyl]cyclohexyl}acetic acid. Some assays were performed with inclusion of didecanoylglycerol in the pre-reaction incubation of test compounds and enzyme. Reactions were initiated after 30 minute pre-reaction incubation via addition of 5 uL of 2.2× substrate. Final reaction conditions consisted of 50 mM HEPES pH 7.5, 2 mM MgCl2, 1 mM CHAPS, 25 uM didecanoylglycerol, 0.5 uM decanoyl-CoA, 0.3 nCi/uL [^14C-]decanoyl-CoA or 0.5 nCi/uL [^3H]-decanoyl-CoA, 0.05-4 ug/mL microsomal protein, and 1% DMSO. Following 60 minute reaction incubation, reactions were stopped with 40 uL of 45% isopropanol and 50 mM sodium carbonate in water and mixed. Extraction of tridecanoylglycerol product was accomplished via addition of 30 uL Microscint-E (Perkin Elmer) and 2 hours of incubation (sealed). Plates were read on a Microbeta Microplate reader Inhibition was normalized to controls containing DMSO or 10 uM {4-[4-(4-amino-7,7-dimethyl-7H-pyrimido[4,5-b][1,4]oxazin-6-yl)phenyl]cyclohexyl}acetic acid. IC50s were fitted using GraphPad Prism to a sigmoidal dose response.

Row | IC50 [nM] | Structure (SMILES)
1 | ≤ 100 | Cc1ccc(Nc2ccc(-c3ccc4c(c3)CCC(CC(=O)O)(CC(F)(F)F)C4=O)nn2)cn1 (single isomer, unassigned) [Example 22, 2-(6-(6-(6-methylpyridin-3-ylamino)pyridazin-3-yl)-1-oxo-2-(2,2,2-trifluoroethyl)-1,2,3,4-tetrahydronaphtha-len-2-yl)acetic acid]
2 | ≤ 100 | O=C(O)CC1(CC(F)(F)F)CCc2cc(-c3ccc(Nc4ccc(C(F)(F)F)nc4)nn3)ccc2C1=O (single isomer, unassigned) [Example 23, 2-(1-oxo-2-(2,2,2-trifluoroethyl)-6-(6-(6-(trifluoromethyl)pyridin-3-ylamino)pyridazin-3-yl)-1,2,3,4-tetrahydronaphthalen-2-yl)acetic acid]
3 | 500 to 10000 | O=C(O)CC1(CC(F)(F)F)CCc2cc(-c3ccc(Nc4ccc(C(F)(F)F)nc4)nn3)ccc2C1=O (single isomer, unassigned) [Example 24, 2-(1-oxo-2-(2,2,2-trifluoroethyl)-6-(6-(6-(trifluoromethyl)pyridin-3-ylamino)pyridazin-3-yl)-1,2,3,4-tetrahydronaphthalen-2-yl)acetic acid]

Further lines, the compound ahead of its results:

Row | Structure (SMILES) | IC50 [nM]
4 | O=C(O)CC1(CC(F)(F)F)CCc2cc(-c3ccc(Nc4cccc(Cl)c4)nn3)ccc2C1=O (single isomer, unassigned) [Example 21, 2-(6-(6-((3-chlorophenyl)amino)pyridazin-3-yl)-1-oxo-2-(2,2,2-trifluoroethyl)-1,2,3,4-tetrahydronaphthalen-2-yl)acetic acid] | ≤ 100
5 | Cc1cnc(Nc2ccc(-c3ccc4c(c3)CCC(CC(=O)O)(CC(F)(F)F)C4=O)nn2)s1 (single isomer, unassigned) [Example 25, 2-(6-(6-(5-methylthiazol-2-ylamino)pyridazin-3-yl)-1-oxo-2-(2,2,2-trifluoroethyl)-1,2,3,4-tetrahydronaphthalen-2-yl)acetic acid] | 500 to 10000
6 | O=C(O)CC1(CC(F)(F)F)CCc2cc(-c3cnc(Nc4cccc(Cl)c4)s3)ccc2C1=O (single isomer, unassigned) [Example 26, 2-(6-(2-(3-Chlorophenylamino)thiazol-5-yl)-1-oxo-2-(2,2,2-trifluoroethyl)-1,2,3,4-tetrahydronaphthalen-2-yl)acetic acid] | 100 to 500
7 | O=C(O)CC1(CC(F)(F)F)CCc2cc(-c3cnc(Nc4ccc(C(F)(F)F)nc4)s3)ccc2C1=O (single isomer, unassigned) [Example 27, 2-(1-oxo-2-(2,2,2-trifluoroethyl)-6-(2-(6-(trifluoromethyl)pyridin-3-ylamino)thiazol-5-yl)-1,2,3,4-tetrahydronaphthalen-2-yl)acetic acid] | 100 to 500
8 | O=C(O)CC1(CC(F)(F)F)CCc2cc(-c3cnc(Nc4ccc(C(F)(F)F)nc4)s3)ccc2C1=O (single isomer, unassigned) [Example 28, 2-(1-oxo-2-(2,2,2-trifluoroethyl)-6-(2-(6-(trifluoromethyl)pyridin-3-ylamino)thiazol-5-yl)-1,2,3,4-tetrahydronaphthalen-2-yl)acetic acid] | ≤ 100
